# According to ChEMBL document CHEMBL5375952, “Discovery of Novel 8-Hydroxyquinoline Derivatives with Potent In Vitro and In Vivo Antifungal Activity” (J Med Chem, 2023):
# System: Candida albicans
# Test: Synergistic antifungal activity against FLC-resistant Candida albicans 100 assessed as fractional inhibitory concentration index incubated for 48 hrs in presence of FLC by broth microdilution method
# Format: functional
smiles,measurement,value
CCN(CC)c1ccc(C(NC(=O)C(C)C)c2ccc3cccnc3c2O)cc1 (stereo unspecified),fractional inhibitory concentration index (FICI),0.14
